A word on the EC50: it is the concentration needed to bring the measured effect to its halfway point.

The subject of assay [1] is Colletotrichum. The assay is described as follows: Antifungal activity against Colletotrichum gossypii at 50 ug/mL by agar plate method. It is filed as functional.
For assay [2], the system named is Rhizoctonia solani. The assay can be described thus: Antifungal activity against Rhizoctonia solani by agar plate method. The class given is functional, organism-based.
The nature of assay [3]: Antifungal activity against Dothiorella gregaria at 50 ug/mL by agar plate method. It is filed as functional.
The subject of assay [4] is Fusarium oxysporum. The assay is described as follows: Antifungal activity against Fusarium oxysporum at 50 ug/mL by agar plate method. It is filed as functional, organism-based.
Assay [5] deals with Botrytis. The assay is described as follows: Antifungal activity against Botrytis […] at 50 ug/mL by agar plate method. It is filed as functional.
For assay [6], the system named is Fusarium graminearum. The assay is described as follows: Antifungal activity against Gibberella zeae at 50 ug/mL by agar plate method. It is filed as functional, organism-based.
Assay [7] concerns Rhizoctonia solani. The assay is described as follows: Ratio of triadimefon EC50 to compound EC50 for Rhizoctonia solani. The class given is functional.

In brackets after ≈: the same amount, converted by molar mass. Activity calls are given as the source filed them. The rule behind the calls is not given here.

As to `Cc1ccc(Cn2cnc(C(=O)N(C#N)Cc3ccc(F)cc3)c2C)cc1`, the result in assay [1], in assay [3], in assay [4], in assay [5] and in assay [6] was inactive. Moreover, the 50% effective concentration (EC50) in assay [2] was determined as 3.04 µg/mL (≈ 8.39 µM).
Consider `Cc1ccc(Cn2cnc(C(=O)N(C#N)Cc3ccccc3)c2C)cc1`, for which the outcome in assay [1], in assay [3], in assay [4], in assay [5] and in assay [6] was inactive. In assay [2], this molecule yielded an EC50 of 3.04 µg/mL (≈ 8.83 µM).
Regarding `Cc1c(C(=O)N(C#N)Cc2ccc(F)cc2)ncn1Cc1ccc(F)cc1`, the outcome in assay [1], in assay [3], in assay [4], in assay [5] and in assay [6] was inactive. The EC50 in assay [2] came to 20.8 µg/mL (≈ 56.8 µM).
The molecule `CC(C)(C)C(=O)C(Oc1ccc(Cl)cc1)n1cncn1` (stereo not drawn) [TRIADIMEFON] yielded an EC50 in assay [2] of 14.7 µg/mL (≈ 50 µM).
For `CCCCn1cnc(C(=O)N(C#N)Cc2ccccc2)c1C`, the result in assay [1], in assay [3], in assay [4], in assay [5] and in assay [6] was inactive. Moreover, the 50% effective concentration (EC50) in assay [2] amounted to 7.98 µg/mL (≈ 26.9 µM).
Turning to `Cc1ccc(Cn2cnc(C(=O)N(C#N)CCCc3ccccc3)c2C)cc1`, the result in assay [1], in assay [3], in assay [4], in assay [5] and in assay [6] was inactive. Further, a half-maximal effect in assay [2] (EC50) was put at 4.64 µg/mL (≈ 12.5 µM).
As for `COC(=O)c1ccccc1CN(C#N)C(=O)c1ncn(Cc2ccc(F)cc2)c1C`, the outcome in assay [1], in assay [3], in assay [4], in assay [5] and in assay [6] was inactive. In assay [2], this molecule came in with a concentration giving a half-maximal response (EC50) of 13.3 µg/mL (≈ 32.6 µM).
On to `Cc1ccc(Cn2cnc(C(=O)N(C#N)Cc3ccccc3F)c2C)cc1`, for which the result in assay [1], in assay [3], in assay [4], in assay [5] and in assay [6] was inactive. Also, a half-maximal response in assay [2] (EC50) required 8.76 µg/mL (≈ 24.2 µM).
As for `CCCCN(C#N)C(=O)c1ncn(CCCC)c1C`, the outcome in assay [1], in assay [3], in assay [4], in assay [5] and in assay [6] was inactive. Besides, the response in assay [2] was half-maximal at 9.01 µg/mL (≈ 34.3 µM) (EC50).
As for `Cc1c(C(=O)N(C#N)Cc2ccccc2F)ncn1Cc1cccc([N+](=O)[O-])c1`, the outcome in assay [1], in assay [3], in assay [4], in assay [5] and in assay [6] was inactive. Besides, in assay [2], a half-maximal response (EC50) required 6.67 µg/mL (≈ 17 µM).
For the molecule `Cc1c(C(=O)N(C#N)Cc2ccc(F)cc2)ncn1Cc1cccc([N+](=O)[O-])c1`, the result in assay [1], in assay [3], in assay [4], in assay [5] and in assay [6] was inactive. For the same molecule, the response in assay [2] was half-maximal at 3.61 µg/mL (≈ 9.18 µM) (EC50).
With `Cc1c(C(=O)N(C#N)Cc2ccccc2)ncn1Cc1ccc(F)cc1`, the outcome in assay [1], in assay [3], in assay [4], in assay [5] and in assay [6] was inactive. The molecule also had a half-maximal effective concentration (EC50) in assay [2] of 31.3 µg/mL (≈ 89.9 µM).
Take `Cc1ccc(CN(C#N)C(=O)c2ncn(Cc3ccc(C)cc3)c2C)cc1`: the outcome in assay [1], in assay [3], in assay [4], in assay [5] and in assay [6] was inactive. The same molecule gave a concentration for a half-maximal effect (EC50) in assay [2] of 15.8 µg/mL (≈ 44.1 µM).
`Cc1c(C(=O)N(C#N)Cc2ccccc2)ncn1Cc1ccccc1`: the result in assay [1], in assay [3], in assay [4], in assay [5] and in assay [6] was inactive. In assay [2], this molecule registered a half-maximal effective concentration (EC50) of 7.74 µg/mL (≈ 23.4 µM).
For `CCCCn1cnc(C(=O)N(C#N)Cc2ccccc2F)c1C`, the result in assay [1], in assay [3], in assay [4], in assay [5] and in assay [6] was inactive. The molecule further displayed a concentration giving a half-maximal response (EC50) in assay [2] of 13.3 µg/mL (≈ 42.2 µM).
With `Cc1c(C(=O)N(C#N)Cc2ccc(F)cc2F)ncn1Cc1ccc(F)cc1`, the result in assay [1], in assay [3], in assay [4], in assay [5] and in assay [6] was inactive. This molecule displayed an EC50 in assay [2] of 2.63 µg/mL (≈ 6.84 µM). For the same molecule, the “Ratio EC50” value in assay [7] is listed as 5.6.
For `Cc1ccc(Cn2cnc(C(=O)N(C#N)Cc3ccccc3Cl)c2C)cc1`, the outcome in assay [1], in assay [3], in assay [4], in assay [5] and in assay [6] was inactive. It took 3.53 µg/mL (≈ 9.32 µM) to reach a half-maximal effect in assay [2] (EC50).

The record behind these values is ChEMBL document CHEMBL1944505, “Novel synthetic methods for N-cyano-1H-imidazole-4-carboxamides and their fungicidal activity” (Bioorg Med Chem Lett, 2012).
